This data set relates to HEK293T cells. As to the kind of experiment: CellTiter-Glo cytotoxicity assay in HEK293T cells. Type of data set: cell-based, human. The following applies: 24 h, 25 μM and 8.3 μM. As to the method:
Cytotoxicity induced by the compounds in HEK293T cells and primary human calvarial osteoblasts (HCO) (ScienCell Research Laboratories, San Diego, CA) were tested using the […]-GLO™ Luminescent Cell Viability Assay (Promega, Madison, WI). This is a luminescence-based assay that determines viable cells by measuring cellular adenosine triphosphate (ATP) production. The luciferase enzyme requires ATP to catalyze the conversion of beetle luciferin to oxyluciferin and light. Thus, luciferase activity is proportional to ATP accumulation in the cells. For this assay, 96-well flat-bottom opaque plates seeded with HEK293T cells at 5,000 cells/well and HCO cells at 3,000 cells/well in 100 μL/well of growth medium (DMEM, 10% FBS, 1× Penicillin/Streptomycin). After incubating overnight at 37° C., 5% CO2 to allow attachment, cells were treated with 1 μL/well of compound (25-0.1 μM) or DMSO vehicle and incubated an additional 24 hours. Then cells were equilibrated for 30 minutes at room temperature and 100 μL/well of […]-GLO™ Reagent was added. Plates were placed on an orbital shaker for 2 minutes and incubated at room temperature for 10 minutes to stabilize the luminescent signal, which was read immediately after on a CLARIOstar plate reader (BMG Labtech, Germany). […] The HEK293T results represent the means±SEM of 3 technical replicates. The HCO results represent the means±SEM of 3 independent experiments.

Drawing on patent US20250134907A1, “FUSED DIAZEPINES AS AGONISTS OF THE INSULIN-LIKE 3 (INSL3) PEPTIDE RECEPTOR RXFP2 AND METHODS OF USE THEREOF” (The United States of America,as represented by the …, priority 2022, published 2025), this text covers cytotoxicity for 1 compound.

For the compound `O=C1Nc2ccc(-c3cccc(C(F)(F)F)c3)cc2C(=O)N2CCN(C(=O)COc3ccc(OC(F)(F)F)cc3Br)C[C@@H]12` [Example 123, (S)-2-(2-(2-bromo-4-(trifluoromethoxy)phenoxy)acetyl)-8-(3-(trifluoromethyl)phenyl)-1,3,4,12a-tetrahydrobenzo[e]pyrazino[1,2-a][1,4]diazepine-6,12 (2H, 11H)-dione], the cytotoxicity result was “some toxicity”.
